The target of series [1] is hNav1.5 sodium channel, fast current (Homo sapiens, UniProt Q14524). As to the kind of experiment: Whole cell patch clamp, fast sodium current of hNav1.5 in HEK293 cells. The conditions noted are these: pH 7.4. As for the experimental part:
(§1) To study the […] Nav1.5 channel, a cell line stably expressing […] (Gene ID: 6331, https://www.ncbi.nlm.nih.gov/gene/6331) encoding a human Nav1.5 channel in HEK293 cells was used.
(§2) Pulse-protocol uses a protocol that gives a −15 mV stimulus for 385 ms at a holding voltage of −120 mV, and then returns to a holding voltage of −120 mV, and the current generated with the −15 mV stimulus (fast current) and the current just before returning to −120 mV (late current) was measured.
(§3) The composition of the external solution used in the experiment is as follows: 137 mM NaCl, 4 mM KCl, 1.8 mM CaCl2) mM, 1 mM MgCl2, 10 mM HEPES, 11 mM D-Glucose, pH 7.4 (NaOH), 280 mOsm.
(§4) The composition of the internal solution used in the experiment is as follows: 130 mM CsCl, 1 mM MgCl2, 7 mM NaCl, 5 mM HEPES, 5 mM EGTA, pH 7.2 (CsOH), 270 mOsm.
A general note: Patch clamp records ionic current or voltage across a cell membrane.

Series [2] addresses hNav1.5 sodium channel, late current (Homo sapiens, UniProt Q14524). As to the kind of experiment: Whole cell patch clamp, late sodium current of hNav1.5 in HEK293 cells (veratridine-activated). The conditions noted are these: human, pH 7.4. On the procedure:
as §1, §2, §3, §4

Series [3] concerns the target human recombinant sodium ion channel Nav1.5 (hNav1.5), late current (Homo sapiens, UniProt Q14524). The series is described as above. As for the experimental part: as §1, §2, §3, §4
Where [4] appears, read: HEK293 cells stably expressing human Nav1.5 (SCN5A).

human recombinant sodium ion channel Nav1.5 (hNav1.5), late current, sequence (Q14524 whole entry): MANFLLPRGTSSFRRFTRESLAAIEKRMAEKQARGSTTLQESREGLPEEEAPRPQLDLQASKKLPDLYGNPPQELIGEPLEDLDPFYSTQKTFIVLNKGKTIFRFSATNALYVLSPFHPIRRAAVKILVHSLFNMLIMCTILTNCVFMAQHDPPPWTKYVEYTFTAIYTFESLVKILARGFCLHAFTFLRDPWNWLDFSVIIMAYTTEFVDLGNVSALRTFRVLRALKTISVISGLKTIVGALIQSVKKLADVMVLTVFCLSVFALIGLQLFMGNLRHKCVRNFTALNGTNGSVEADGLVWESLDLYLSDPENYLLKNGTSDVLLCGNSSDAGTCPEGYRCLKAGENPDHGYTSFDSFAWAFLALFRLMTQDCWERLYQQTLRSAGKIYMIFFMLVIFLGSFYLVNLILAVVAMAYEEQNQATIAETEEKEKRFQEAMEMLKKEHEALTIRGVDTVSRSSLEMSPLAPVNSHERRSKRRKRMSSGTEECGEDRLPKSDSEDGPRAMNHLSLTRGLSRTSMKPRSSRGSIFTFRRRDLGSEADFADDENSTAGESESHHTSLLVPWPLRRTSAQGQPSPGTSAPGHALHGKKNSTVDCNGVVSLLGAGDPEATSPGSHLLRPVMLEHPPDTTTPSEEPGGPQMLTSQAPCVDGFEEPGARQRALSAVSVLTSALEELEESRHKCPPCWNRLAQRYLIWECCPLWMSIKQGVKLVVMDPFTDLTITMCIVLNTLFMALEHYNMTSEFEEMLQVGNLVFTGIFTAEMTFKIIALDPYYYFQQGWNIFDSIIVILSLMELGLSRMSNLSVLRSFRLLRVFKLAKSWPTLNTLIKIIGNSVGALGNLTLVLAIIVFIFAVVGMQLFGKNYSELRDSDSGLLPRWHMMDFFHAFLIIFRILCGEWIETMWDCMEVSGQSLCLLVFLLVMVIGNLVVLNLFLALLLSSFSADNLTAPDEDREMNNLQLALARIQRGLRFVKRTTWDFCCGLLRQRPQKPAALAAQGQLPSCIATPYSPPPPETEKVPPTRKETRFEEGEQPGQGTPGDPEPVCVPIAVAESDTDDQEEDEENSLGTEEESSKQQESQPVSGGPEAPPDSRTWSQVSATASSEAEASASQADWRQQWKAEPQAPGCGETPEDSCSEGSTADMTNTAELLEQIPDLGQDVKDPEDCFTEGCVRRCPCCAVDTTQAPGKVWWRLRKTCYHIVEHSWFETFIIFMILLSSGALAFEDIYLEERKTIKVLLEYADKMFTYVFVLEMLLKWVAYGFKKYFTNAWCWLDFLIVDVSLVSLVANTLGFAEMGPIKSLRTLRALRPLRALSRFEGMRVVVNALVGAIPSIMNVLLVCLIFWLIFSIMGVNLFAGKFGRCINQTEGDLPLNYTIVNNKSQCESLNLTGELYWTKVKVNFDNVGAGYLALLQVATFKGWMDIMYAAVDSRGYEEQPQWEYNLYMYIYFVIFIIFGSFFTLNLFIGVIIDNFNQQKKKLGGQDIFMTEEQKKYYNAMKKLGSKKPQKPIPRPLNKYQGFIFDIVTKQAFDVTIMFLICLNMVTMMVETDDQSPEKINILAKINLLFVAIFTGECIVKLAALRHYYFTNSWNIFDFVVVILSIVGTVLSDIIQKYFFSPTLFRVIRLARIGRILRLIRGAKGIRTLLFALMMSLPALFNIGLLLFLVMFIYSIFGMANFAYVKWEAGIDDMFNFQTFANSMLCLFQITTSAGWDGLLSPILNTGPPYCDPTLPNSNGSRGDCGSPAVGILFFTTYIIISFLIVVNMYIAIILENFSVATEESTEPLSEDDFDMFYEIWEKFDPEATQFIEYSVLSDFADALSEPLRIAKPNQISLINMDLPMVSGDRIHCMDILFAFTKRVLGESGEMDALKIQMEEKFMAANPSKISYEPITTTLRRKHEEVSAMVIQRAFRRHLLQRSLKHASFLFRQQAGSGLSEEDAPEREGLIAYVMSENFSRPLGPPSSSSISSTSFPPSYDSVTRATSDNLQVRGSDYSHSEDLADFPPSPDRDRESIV
hNav1.5 sodium channel, late current, sequence (Q14524 whole entry): as above

The inhibition is how much of the control response was suppressed. A higher inhibition goes with strong suppression. As for `NC(=O)N1c2ccccc2C=Cc2ccccc21` [Carbamazepine], the inhibition at 10 μM in series [1] (setting [4]) was 7.7%; in series [2] (setting [4]), 20.4%. In addition, the inhibition at 30 μM in series [1] (setting [4]) came out at 12.3%; in series [2] (setting [4]), 36.2%. Besides, the inhibition at 100 μM came out at 24.5% in series [1] (setting [4]) and 65.4% in series [2] (setting [4]). Also, the inhibition at 300 μM worked out at 51.4% in series [1] (setting [4]) and 86.9% in series [2] (setting [4]). Moreover, the “Inhibition ratio of late current/fast current” value stood at 2.6 in series [3] (10 μM), 2.9 in series [3] (30 μM), 2.7 in series [3] (100 μM) and 1.7 in series [3] (300 μM).
For `Nc1nnc(-c2cccc(Cl)c2Cl)c(N)n1` [Lamotrigine, lamotrigine], the inhibition at 10 μM in series [1] (setting [4]) came to 8.3%; in series [2] (setting [4]) it was 10.7%. Further, the values for the inhibition at 30 μM in series [1] (setting [4]) and in series [2] (setting [4]) were 16.6% and 32.9%, respectively. Besides, the values for the inhibition at 100 μM in series [1] (setting [4]) and in series [2] (setting [4]) were 29% and 56.7%, respectively. Also, the inhibition at 300 μM in series [1] (setting [4]) was 51.2%; in series [2] (setting [4]), 80.1%. The “Inhibition ratio of late current/fast current” value in series [3] (10 μM) is on record as 1.3; in series [3] (30 μM) it was 2.0; in series [3] (100 μM) it was 2.0; in series [3] (300 μM) it was 1.6.
Turning to `NC(=O)O[C@@H](Cn1ncnn1)c1ccccc1Cl` [Test compound, carbamic acid (R)-1-(2-chlorophenyl)-2-tetrazol-2-yl-ethyl ester], the inhibition at 10 μM in series [1] was determined as 3%; in series [2], 11.4%. Besides, the inhibition at 30 μM in series [1] came to 5.7%; in series [2] it was 24%. In addition, the figures for the inhibition at 100 μM in series [1] and in series [2] were 13% and 33.9%, respectively. Besides, the inhibition at 300 μM turned out to be 26.2% in series [1] and 49.8% in series [2]. For the same compound, the “Inhibition ratio of late current/fast current” value stood at 3.8 in series [3] (10 μM), 4.2 in series [3] (30 μM), 2.6 in series [3] (100 μM) and 1.9 in series [3] (300 μM). For the same compound, the “Selectivity of inhibition of late versus fast sodium current (in words)” value in series [3] (at a concentration in the drug effective concentration range, compared to the comparative compounds) is “inhibited the late sodium current more selectively than the fast sodium current”.

The values are drawn from US11406620B2, “Use of carbamate compound for preventing or treating diseases associated with increase in late sodium current” (SK BIOPHARMACEUTICALS CO., LTD., priority 2017, dated 2022).
